Consider 8 molecules from paper PMC11767490, “A Bis-Glycosylamine Strategy for the Synthesis of Dimeric Iminosugars Based on a DAB-1 Scaffold” (Molecules, 2025).

For one assay, the target named is fucosidase. Details: method as in PMID 27138139. Conditions: cited from earlier work.
For assay [1], the target named is T1, α-galactosidase (green coffee) (Coffea arabica, UniProt Q42656).
T1 construct: purchased Sigma Chemical Co
Nature of the assay: glycosidase inhibition assay, α-galactosidase from green coffee bean. It is filed as biochemical. Conditions: 1 mM inhibitor; pH 5.6; read-out: % inhibition at 1 mM concentration of inhibitor. As to the method: (§1) A prepared sample of DAB-1 8 was also tested under the same conditions for ease of comparison. A first set of biological assays was effected at 1 mM concentration of inhibitor. […] Former results from our laboratories have always followed this empirical rule.
(§2) All the enzymes were purchased from Sigma Chemical Co. In a typical experiment, the glycosidase (0.013 U/mL) was pre-incubated at 33 °C for 5 min in the presence of the inhibitor in 50 mM acetate buffer (pH 5.6, except for rice α-glucosidase pH 5.1 and yeast α-glucosidase pH 6.2). The reaction was started by the addition of the appropriate substrate (p-nitrophenyl glycoside, 1 mM concentration) to a final volume of 250 µL. The reaction was stopped after 10–15 min (depending on the enzyme) by the addition of 350 µL of 0.4 M Na2CO3. The released p-nitrophenolate was quantified spectrophotometrically at 415 nm with a microplate reader (300 µL of the reaction mixture per well). […] All the assays were performed in duplicate (less than 10% variability in each case).

In assay [2] the target is T2, α-mannosidase (Jack bean) (Canavalia ensiformis, UniProt C0HJB3).
T2 construct: purchased Sigma Chemical Co
T2 sequence (C0HJB3 1-981): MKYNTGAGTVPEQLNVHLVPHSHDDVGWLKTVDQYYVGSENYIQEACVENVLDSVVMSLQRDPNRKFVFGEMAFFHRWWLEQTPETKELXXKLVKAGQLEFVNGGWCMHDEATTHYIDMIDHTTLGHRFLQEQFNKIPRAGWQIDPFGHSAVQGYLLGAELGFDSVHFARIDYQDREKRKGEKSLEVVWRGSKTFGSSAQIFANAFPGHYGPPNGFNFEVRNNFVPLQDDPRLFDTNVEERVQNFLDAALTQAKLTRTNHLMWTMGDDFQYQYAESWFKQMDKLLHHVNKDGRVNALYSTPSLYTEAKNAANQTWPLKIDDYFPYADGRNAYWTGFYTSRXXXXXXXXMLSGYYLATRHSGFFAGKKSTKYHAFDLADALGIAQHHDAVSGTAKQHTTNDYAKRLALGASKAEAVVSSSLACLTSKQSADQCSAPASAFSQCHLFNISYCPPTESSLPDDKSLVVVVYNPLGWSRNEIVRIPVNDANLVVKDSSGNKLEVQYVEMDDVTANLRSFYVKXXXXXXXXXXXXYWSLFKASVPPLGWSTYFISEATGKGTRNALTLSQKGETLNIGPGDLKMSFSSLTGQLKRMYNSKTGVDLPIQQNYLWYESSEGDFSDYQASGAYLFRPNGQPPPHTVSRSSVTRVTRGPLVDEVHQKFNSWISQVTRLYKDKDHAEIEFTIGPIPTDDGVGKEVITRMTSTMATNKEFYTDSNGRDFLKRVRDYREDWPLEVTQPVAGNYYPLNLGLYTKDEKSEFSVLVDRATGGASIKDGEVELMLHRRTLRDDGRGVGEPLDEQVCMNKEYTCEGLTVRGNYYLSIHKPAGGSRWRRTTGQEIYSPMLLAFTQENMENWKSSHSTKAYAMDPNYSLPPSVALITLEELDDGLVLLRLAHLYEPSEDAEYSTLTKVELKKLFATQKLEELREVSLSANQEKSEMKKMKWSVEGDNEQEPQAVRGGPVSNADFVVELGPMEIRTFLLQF
The assay can be described thus: glycosidase inhibition assay, α-mannosidase from Jack bean. It is filed as biochemical. Here is the method: as §1, §2

The target of assay [3] is T3, α-glucosidase (Sac. cerevisiae) (Saccharomyces cerevisiae, UniProt P53341).
T3 construct: purchased Sigma Chemical Co
T3 sequence (P53341 whole entry): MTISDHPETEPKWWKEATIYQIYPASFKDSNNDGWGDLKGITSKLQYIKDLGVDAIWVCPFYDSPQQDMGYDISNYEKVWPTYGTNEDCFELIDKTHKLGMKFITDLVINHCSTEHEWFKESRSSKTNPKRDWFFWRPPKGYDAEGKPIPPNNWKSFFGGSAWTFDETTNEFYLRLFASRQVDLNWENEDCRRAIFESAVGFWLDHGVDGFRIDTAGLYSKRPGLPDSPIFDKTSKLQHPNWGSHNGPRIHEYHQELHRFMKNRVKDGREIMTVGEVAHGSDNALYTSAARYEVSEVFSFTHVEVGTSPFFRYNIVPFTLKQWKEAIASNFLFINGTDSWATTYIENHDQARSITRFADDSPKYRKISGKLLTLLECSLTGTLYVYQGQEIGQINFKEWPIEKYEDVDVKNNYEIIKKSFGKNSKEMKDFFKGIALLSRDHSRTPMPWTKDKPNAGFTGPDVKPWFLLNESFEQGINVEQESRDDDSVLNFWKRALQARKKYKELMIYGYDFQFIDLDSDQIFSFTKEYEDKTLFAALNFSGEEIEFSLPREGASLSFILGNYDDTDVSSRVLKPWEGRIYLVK
Nature of the assay: glycosidase inhibition assay, α-glucosidase from yeast. The format is biochemical. Conditions: for inhibition at 1000 µM: pH 6.2, read-out: % inhibition at 1 mM concentration of inhibitor, 1 mM inhibitor, negative values mean activation. As to the method: as §1, §2

The next assay has as its system β-glucosidase (almond). The assay can be described thus: glycosidase inhibition assay, β-glucosidase from almond. The format is biochemical. Conditions: pH 5.6; for % inhibition at 1 mM concentration of inhibitor: 1 mM inhibitor. Here is the method: as §1, §2
Assay [4] addresses T4, β-galactosidase (Asp. orizae) (Aspergillus oryzae, UniProt Q2UCU3).
T4 construct: purchased Sigma Chemical Co
T4 sequence (Q2UCU3 19-1005): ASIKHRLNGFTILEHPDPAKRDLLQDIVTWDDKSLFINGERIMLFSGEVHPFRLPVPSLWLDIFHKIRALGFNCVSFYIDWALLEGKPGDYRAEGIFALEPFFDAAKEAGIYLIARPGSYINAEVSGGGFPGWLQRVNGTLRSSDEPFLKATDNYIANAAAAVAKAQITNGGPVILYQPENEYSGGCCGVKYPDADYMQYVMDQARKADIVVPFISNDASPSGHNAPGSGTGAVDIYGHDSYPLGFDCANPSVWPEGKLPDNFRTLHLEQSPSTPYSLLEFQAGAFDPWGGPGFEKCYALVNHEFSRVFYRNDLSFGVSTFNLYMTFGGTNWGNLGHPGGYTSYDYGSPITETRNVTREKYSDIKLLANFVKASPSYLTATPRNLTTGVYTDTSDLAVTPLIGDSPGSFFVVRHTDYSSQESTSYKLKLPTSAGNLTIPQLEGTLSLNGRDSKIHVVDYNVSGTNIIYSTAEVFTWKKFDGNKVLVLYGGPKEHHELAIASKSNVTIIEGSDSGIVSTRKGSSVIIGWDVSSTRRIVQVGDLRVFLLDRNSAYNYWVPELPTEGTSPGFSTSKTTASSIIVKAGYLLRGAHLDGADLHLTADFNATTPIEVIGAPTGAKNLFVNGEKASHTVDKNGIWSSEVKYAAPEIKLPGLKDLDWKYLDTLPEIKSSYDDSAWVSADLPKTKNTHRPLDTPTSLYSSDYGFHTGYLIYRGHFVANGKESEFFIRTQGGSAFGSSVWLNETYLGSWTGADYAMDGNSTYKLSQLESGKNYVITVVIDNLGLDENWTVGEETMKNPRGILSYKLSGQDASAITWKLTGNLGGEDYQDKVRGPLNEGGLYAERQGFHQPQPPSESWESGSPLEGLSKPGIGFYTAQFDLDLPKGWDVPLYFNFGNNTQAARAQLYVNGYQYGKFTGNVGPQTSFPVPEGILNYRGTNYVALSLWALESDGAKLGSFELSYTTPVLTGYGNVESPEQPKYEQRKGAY
Nature of the assay: glycosidase inhibition assay, β-galactosidase from A. orizae. It is filed as biochemical. Conditions: for IC50: pH 5.6; for inhibition at 1000 µM: pH 5.6, read-out: % inhibition at 1 mM concentration of inhibitor. Here is the method: as §1, §2

In the next assay the test system is β-GlcNAc-ase (Jack bean). The assay can be described thus: glycosidase inhibition assay, β-N-acetylglucosaminidase from Jack bean. It is filed as biochemical. Conditions: for % inhibition at 1 mM concentration of inhibitor: 1 mM inhibitor, pH 5.6, negative values mean activation; for activation of enzyme activity: 1 mM compound. Here is the method: as §1, §2
Assay [5] has as its target T5, β-glucosidase (Asp. niger) (Aspergillus niger, UniProt A2RAL4).
T5 construct: purchased Sigma Chemical Co
Nature of the assay: glycosidase inhibition assay, β-glucosidase from A. niger. The format is biochemical. Conditions: for inhibition at 1000 µM: pH 5.6, 1 mM inhibitor, pH 5.6, read-out: % inhibition at 1 mM concentration of inhibitor. As to the method: as §1, §2

Assay [6] has as its system α-rhamnosidase (Asp. niger). Nature of the assay: glycosidase inhibition assay, α-rhamnosidase from A. niger. Conditions: 1 mM inhibitor; pH 5.6. The format is biochemical. Here is the method: as §1, §2
The target of the next assay is T6, α-glucosidase (rice) (Oryza sativa subsp. japonica, UniProt Q653V7).
T6 construct: purchased Sigma Chemical Co
T6 sequence (Q653V7 34-885): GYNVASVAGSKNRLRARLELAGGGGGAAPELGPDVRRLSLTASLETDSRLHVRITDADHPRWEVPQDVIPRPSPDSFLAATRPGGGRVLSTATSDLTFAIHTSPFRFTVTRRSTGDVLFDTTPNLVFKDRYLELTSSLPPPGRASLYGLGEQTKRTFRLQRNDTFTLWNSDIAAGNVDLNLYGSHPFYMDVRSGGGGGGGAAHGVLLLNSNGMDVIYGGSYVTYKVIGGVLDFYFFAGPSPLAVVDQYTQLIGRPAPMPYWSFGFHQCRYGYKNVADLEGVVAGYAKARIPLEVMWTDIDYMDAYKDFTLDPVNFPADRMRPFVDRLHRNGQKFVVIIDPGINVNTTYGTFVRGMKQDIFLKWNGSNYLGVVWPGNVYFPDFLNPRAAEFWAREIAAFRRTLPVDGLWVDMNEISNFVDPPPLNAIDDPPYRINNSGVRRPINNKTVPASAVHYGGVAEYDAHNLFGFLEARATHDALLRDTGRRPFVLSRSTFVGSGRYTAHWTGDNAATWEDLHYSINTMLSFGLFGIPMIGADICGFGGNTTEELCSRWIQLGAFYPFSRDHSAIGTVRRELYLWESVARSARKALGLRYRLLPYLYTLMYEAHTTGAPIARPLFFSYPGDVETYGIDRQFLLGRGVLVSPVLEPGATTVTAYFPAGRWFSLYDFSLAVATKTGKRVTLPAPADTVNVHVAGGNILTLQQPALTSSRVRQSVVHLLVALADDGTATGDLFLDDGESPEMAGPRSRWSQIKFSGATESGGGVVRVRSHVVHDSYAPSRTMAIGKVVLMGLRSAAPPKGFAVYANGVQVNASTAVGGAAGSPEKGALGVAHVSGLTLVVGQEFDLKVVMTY
The assay can be described thus: glycosidase inhibition assay, α-glucosidase from rice. Conditions: for inhibition at 1000 µM: pH 5.1, 1 mM inhibitor, pH 5.1, p-nitrophenyl glycoside 1 mM, read-out: % inhibition at 1 mM concentration of inhibitor. It is filed as biochemical. Here is the method: as §1, §2

[7] abbreviates: 1 mM inhibitor, pH 5.6, read-out: % inhibition at 1 mM concentration of inhibitor.
The mark [8] stands for this setting: pH 5.6, read-out: % inhibition at 1 mM concentration of inhibitor.

Like-named read-outs stand apart in the source and are kept apart here. Marks after values point to notes of the source that are not given here.

T5 sequence (A2RAL4 20-860): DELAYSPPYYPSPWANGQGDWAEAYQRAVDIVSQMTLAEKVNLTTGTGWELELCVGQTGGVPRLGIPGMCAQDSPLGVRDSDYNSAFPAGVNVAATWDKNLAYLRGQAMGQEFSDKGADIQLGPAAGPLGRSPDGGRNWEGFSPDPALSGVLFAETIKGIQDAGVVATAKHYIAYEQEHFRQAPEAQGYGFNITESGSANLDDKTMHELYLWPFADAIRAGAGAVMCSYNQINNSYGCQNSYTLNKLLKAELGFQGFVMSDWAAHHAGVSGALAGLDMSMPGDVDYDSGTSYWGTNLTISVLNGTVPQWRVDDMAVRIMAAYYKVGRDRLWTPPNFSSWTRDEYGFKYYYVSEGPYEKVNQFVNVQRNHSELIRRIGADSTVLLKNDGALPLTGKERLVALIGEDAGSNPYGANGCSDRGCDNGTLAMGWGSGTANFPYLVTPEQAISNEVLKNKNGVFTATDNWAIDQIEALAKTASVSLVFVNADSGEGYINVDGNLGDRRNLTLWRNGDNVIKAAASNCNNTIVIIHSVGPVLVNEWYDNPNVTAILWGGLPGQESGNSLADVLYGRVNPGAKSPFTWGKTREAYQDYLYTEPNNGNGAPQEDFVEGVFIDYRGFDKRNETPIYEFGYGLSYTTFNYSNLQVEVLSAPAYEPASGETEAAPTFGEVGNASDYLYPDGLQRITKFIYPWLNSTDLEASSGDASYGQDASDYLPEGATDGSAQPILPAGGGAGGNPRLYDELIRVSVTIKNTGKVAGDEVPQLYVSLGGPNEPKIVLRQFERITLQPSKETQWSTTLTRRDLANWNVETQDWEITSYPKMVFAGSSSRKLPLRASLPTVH
T1 sequence (Q42656 16-378): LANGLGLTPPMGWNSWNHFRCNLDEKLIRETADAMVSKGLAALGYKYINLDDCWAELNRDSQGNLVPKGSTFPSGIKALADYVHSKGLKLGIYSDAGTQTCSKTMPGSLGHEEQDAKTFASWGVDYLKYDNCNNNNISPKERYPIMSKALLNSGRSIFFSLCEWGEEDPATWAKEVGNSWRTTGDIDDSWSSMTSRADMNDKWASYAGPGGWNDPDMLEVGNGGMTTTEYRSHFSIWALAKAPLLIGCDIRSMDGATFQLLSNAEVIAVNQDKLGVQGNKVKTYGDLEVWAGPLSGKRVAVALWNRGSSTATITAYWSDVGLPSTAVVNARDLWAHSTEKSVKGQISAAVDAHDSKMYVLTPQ

Broadly, the IC50 is the concentration at which inhibition is half-maximal. On to `C[C@@H]1N[C@@H](CCCC[C@@H]2N[C@@H](C)[C@@H](O)[C@H]2O)[C@H](O)[C@@H]1O` [compound 6], for which the IC50 at fucosidase was 0.108 µM. Moreover, in the assay with fucosidase (dimer vs monomer), the “fold increase in the inhibition potency relative to the monomer” value is given as 19 fold.
A word on the % inhibition: it is how much of the control response was suppressed. Lower therefore signals little suppression. Turning to `OC[C@@H]1[C@@H](O)[C@H](O)CN1Cc1ccc(CN2C[C@@H](O)[C@H](O)[C@H]2CO)cc1` [13b], the inhibition at 1000 µM in [1] was below 5%; in assay [2] (setting [7]), 84%; in assay [3] (pH 6.2), 95%; in assay [4], above 95%; in [5], 43%; at α-glucosidase (rice), 77%. Besides, the half-inhibitory concentration (IC50) in assay [3] turned out to be 39 µM; in assay [4], 2.8 µM. Further, the “% inhibition at 1 mM concentration of inhibitor” value (from here on “% inhibition”) is on record as 16% in the assay on β-glucosidase (almond), “NI (NI means no impact on enzyme activity (less than 5% inhibition or activation))” in the assay with β-GlcNAc-ase (Jack bean) and 24% in [6].
Regarding `OC[C@@H]1[C@@H](O)[C@H](O)CN1Cc1cccc(CN2C[C@@H](O)[C@H](O)[C@H]2CO)c1` [13a], the inhibition at 1000 µM in [1] was 38%; in assay [2] (setting [8]), 75%; in assay [3] (pH 6.2), 88%; in assay [4], 93%; in [5], 24%; on α-glucosidase (rice), 40%. Besides, the “% inhibition” value is recorded as 13% in the assay on β-glucosidase (almond), “NI (NI means no impact on enzyme activity (less than 5% inhibition or activation))” in the assay with β-GlcNAc-ase (Jack bean) and 67% in assay [6].
Turning to `OC[C@H]1NC[C@@H](O)[C@@H]1O` [DAB-1], the inhibition at 1000 µM is 11% in assay [1]; above 95% in assay [2] (setting [7]); above 95% in assay [3] (pH 6.2); 76% in assay [4]; above 95% in [5]; above 95% on α-glucosidase (rice). In addition, the IC50 in assay [2] (pH 5.6) was 49 µM; in [3] (pH 6.2, determined when >95% inhibition at 1 mM, read-out: IC50), 0.69 µM; against β-glucosidase (almond), 79 µM; in assay [5], 62 µM; against α-glucosidase (rice) it was 7.8 µM. The “% inhibition” value amounted to 95% with β-glucosidase (almond), 14% with β-GlcNAc-ase (Jack bean) and 34% in assay [6].
With `C=CC[C@@H]1[C@@H](O)[C@H](O)[C@@H](CO)N1CCOCCOCCN1[C@H](CO)[C@@H](O)[C@H](O)[C@H]1CC=C` [16d], the inhibition at 1000 µM was below 5% in assay [1]; 32% in assay [2] (setting [8]); -20% in assay [3] (pH 6.2); 58% in assay [4]; 51% in assay [5]; 26% on α-glucosidase (rice). Moreover, the “enhancement of enzyme activity” value in assay [3] (activation, 1 mM compound) came out at 20%. For the same molecule, the “% inhibition” value with β-glucosidase (almond) is listed as 25%; in the assay on β-GlcNAc-ase (Jack bean), “–33% ^c”; in [6], 25%. Moreover, the “activation of enzyme activity” value in the assay on β-GlcNAc-ase (Jack bean) amounted to 33%.
As for `OC[C@@H]1[C@@H](O)[C@H](O)CN1CCCOCCOCCOCCCN1C[C@@H](O)[C@H](O)[C@H]1CO` [13e], the inhibition at 1000 µM in assay [1] was 22%; in assay [2] (setting [7]), above 95%; in [3] (pH 6.2), 65%; in assay [4] it was 81%; in [5] it was 91%; on α-glucosidase (rice), 72%. The IC50 in assay [2] (pH 5.6) worked out at 34 µM. Besides, the “% inhibition” value is 23% in the assay on β-glucosidase (almond), “NI (NI means no impact on enzyme activity (less than 5% inhibition or activation))” in the assay on β-GlcNAc-ase (Jack bean) and 18% in assay [6].
As to `OC[C@@H]1[C@@H](O)[C@H](O)CN1CCOCCOCCN1C[C@@H](O)[C@H](O)[C@H]1CO` [13d], the inhibition at 1000 µM is 22% in [1]; 82% in assay [2] (setting [8]); around 90% in [3] (pH 6.2); 92% in [4]; around 90% in assay [5]; around 90% at α-glucosidase (rice). For the same molecule, the “% inhibition” value is given as 24% in the assay on β-glucosidase (almond), “–38% ^c” with β-GlcNAc-ase (Jack bean) and 46% in [6]. In addition, in the assay on β-GlcNAc-ase (Jack bean), the “activation of enzyme activity” value turned out to be 38%.
Regarding `OC[C@@H]1[C@@H](O)[C@H](O)CN1CCCCCCCCN1C[C@@H](O)[C@H](O)[C@H]1CO` [13c], the inhibition at 1000 µM is 61% in [1]; above 95% in [2] (setting [7]); 88% in [3] (pH 6.2); above 95% in assay [4]; 94% in assay [5]; 92% on α-glucosidase (rice). Also, the values for the IC50 in assay [2] (pH 5.6) and in [4] were 18 µM and 31 µM, respectively. Further, the “% inhibition” value is 60% in the assay on β-glucosidase (almond), “NI (NI means no impact on enzyme activity (less than 5% inhibition or activation))” with β-GlcNAc-ase (Jack bean) and 69% in assay [6].
